According to patent publication US4452784A, “C-23-Modified derivatives of DMT” (Eli Lilly and Company, priority 1982, dated 1984):
Values after ≈ are worked out from the molar mass of the structure shown. Where two headings read alike, the source gives them in different places.

How the values were obtained:
[1] = tested on: Staphylococcus epidermidis EPI2; assay: Antibiotic activity, standard agar-dilution assay (MIC); assay type: cell-based; details: S. epidermidis EPI2
Description: (§1) The MIC's in Table III were determined by standard agar-dilution assays. The MIC's in Table IV were obtained using a conventional broth-dilution microtiter test.
(§2) Antibiotic Activity of C-23 Modified Derivatives of DMT^a

[2] = tested on: Haemophilus influenzae R52; assay: as above; assay type: cell-based; details: H. influenzae R52, ampicillin-resistant strain
Description: as §1, §2

[3] = tested on: Haemophilus influenzae Holt; assay: as above; assay type: cell-based; details: H. influenzae Holt, ampicillin-sensitive strain
Description: as §1, §2

[4] = tested on: Staphylococcus aureus S13E; assay: as above; assay type: cell-based
Description: as §1, §2

[5] = tested on: Streptococcus Group D X66; assay: as above; assay type: cell-based
Description: as §1, §2

[6] = tested on: Streptococcus pyogenes C203; assay: as above; assay type: cell-based; details: S. pyogenes C203
Description: as §1, §2

Streptococcus Group 9960 = assay: as above; assay type: cell-based; details: GROUP9960
Description: as §1, §2

[7] = tested on: Staphylococcus aureus X1.1; assay: as above; assay type: cell-based; details: S. aureus X1.1
Description: as §1, §2

[8] = tested on: Staphylococcus epidermidis EPI1; assay: as above; assay type: cell-based; details: S. epidermidis EPI1
Description: as §1, §2

[9] = tested on: Staphylococcus aureus V41; assay: as above; assay type: cell-based
Description: as §1, §2

[10] = tested on: Streptococcus pneumoniae Park I; assay: as above; assay type: cell-based; details: S. pneumoniae Park I
Description: as §1, §2

[11] = tested on: Staphylococcus aureus X400; assay: as above; assay type: cell-based
Description: as §1, §2

[12] = tested on: Pasteurella multocida 60A; assay: Antibiotic activity, broth-dilution microtiter test (MIC); assay type: cell-based; details: P. multocida 60A, avian isolate
Description: as §1
(§3) Antibiotic Activity of DMT Derivatives^a

Mycoplasma synoviae = assay: as above; assay type: cell-based; details: Mycoplasmopsis synoviae, M. synoviae
Description: as §1, §3

Staphylococcus aureus = assay: as above; assay type: cell-based; details: S. aureus
Description: as §1, §3

[13] = tested on: Pasteurella hemolytica 22C; assay: as above; assay type: cell-based
Description: as §1, §3

[14] = tested on: Pasteurella multocida 40G; assay: as above; assay type: cell-based; details: P. multocida 40G
Description: as §1, §3

Streptococcus bovis 80 = assay: as above; assay type: cell-based; details: S. bovis 80
Description: as §1, §3

[15] = tested on: Pasteurella multocida 22A; assay: as above; assay type: cell-based; details: P. multocida 22A
Description: as §1, §3

[16] = tested on: Pasteurella hemolytica 41D; assay: as above; assay type: cell-based; details: P. hemolytica 41D
Description: as §1, §3

Mycoplasma gallisepticum [17] = assay: as above; assay type: cell-based; details: Mycoplasmoides gallisepticum, M. gallisepticum
Description: as §1, §3

Mycoplasma hyorhinis = assay: as above; assay type: cell-based
Description: as §1, §3

[18] = tested on: Pasteurella hemolytica 23C; assay: as above; assay type: cell-based; details: P. hemolytica 23C
Description: as §1, §3

[19] = tested on: Pasteurella multocida 17E; assay: as above; assay type: cell-based; details: P. multocida 17E, bovine isolate
Description: as §1, §3

[20] = tested on: Pasteurella multocida 68C; assay: as above; assay type: cell-based; details: P. multocida 68C
Description: as §1, §3

[21] = tested on: Streptococcus pyogenes C203; assay: ED50 in mice experimentally infected with S. pyogenes C203; assay type: in vivo; details: doses given 1 and 4 hours postinfection
Description: The C-23 modified derivatives of DMT of this invention have shown in vivo antimicrobial activity against experimentally-induced infections in laboratory animals. When two doses of test compound were administered to mice experimentally infected with S. pyogenes C203, the activity observed was measured as an ED50 value [effective dose in mg/kg to protect 50% of the test animals: see Warren Wick, et al., J. Bacteriol. 81, 233-235 (1961)].
^a mg/kg × 2; doses given 1 and 4 hours postinfection

Mycoplasma gallisepticum [22] = assay: Antimycoplasmal activity of DMT derivatives in chicks; assay type: in vivo; details: for Number with Antibodies/Number Tested: antibodies to M. gallisepticum
Description: In these tests infections were induced in chicks by injecting 0.2 ml. of a broth culture of M. gallisepticum into the abdominal air sac of two- to three-day-old chicks. The compounds were administered subcutaneously at a dose of 60 mg/kg once only on the day of infection or, at the same level, two times on the day of infection and two times on the first day post-infection. Twenty-one days post-infection, the chicks were weighed, a blood sample was taken, and the chicks were sacrificed. The presence or absence of air-sac lesions was recorded.

[23] = agar dilution, S. aureus V41, penicillin-resistant strain, read-out: MIC
[24] = subcutaneous 60 mg/kg × 1, 21 days post-infection
[25] = subcutaneous 60 mg/kg × 4, 21 days post-infection
[26] = agar dilution, Streptococcus Group D X66, read-out: MIC
[27] = agar dilution, S. aureus X400, methicillin-resistant strain, read-out: MIC
[28] = broth-dilution microtiter, P. hemolytica 22C, read-out: MIC
[29] = broth-dilution microtiter, M. hyorhinis, read-out: MIC

Row | SMILES | MIC [1] [µg/mL] | MIC [3] [µg/mL] | MIC [4] [µg/mL] | MIC [6] [µg/mL] | MIC (Streptococcus Group 9960) [µg/mL] | MIC [7] [µg/mL] | MIC [8] [µg/mL] | MIC [10] [µg/mL] | MIC [12] [µg/mL] | MIC (Mycoplasma synoviae) [µg/mL] | MIC (Staphylococcus aureus) [µg/mL] | MIC [14] [µg/mL] | MIC (Streptococcus bovis 80) [µg/mL] | MIC [15] [µg/mL] | MIC [16] [µg/mL] | MIC (Mycoplasma gallisepticum [17]) [µg/mL] | MIC [18] [µg/mL] | MIC [19] [µg/mL] | MIC [20] [µg/mL] | ED50 ([21]; C203, oral) [mg/kg] | also measured
1 | CCC1OC(=O)CC(O)C(C)C(OC2OC(C)C(OC3CC(C)(O)C(O)C(C)O3)C(N(C)C)C2O)C(CC=O)CC(C)C(=O)C=CC(C)=CC1CN=[N+]=[N-] (centres unmarked) [Compound 1, 23-Deoxy-23-Azido-DMT] | 0.25 (≈ 0.326 µM) | 8 (≈ 10.4 µM) | 0.25 (≈ 0.326 µM) | 0.125 (≈ 0.163 µM) | 0.25 (≈ 0.326 µM) | 0.25 (≈ 0.326 µM) | 0.25 (≈ 0.326 µM) | 0.06 (≈ 0.0782 µM) | 6.25 (≈ 8.15 µM) | 0.78 (≈ 1.02 µM) | 1.56 (≈ 2.03 µM) | 6.25 (≈ 8.15 µM) | 0.39 (≈ 0.509 µM) | 12.5 (≈ 16.3 µM) | 25 (≈ 32.6 µM) | 0.19 (≈ 0.248 µM) | 25 (≈ 32.6 µM) | 6.25 (≈ 8.15 µM) | 6.25 (≈ 8.15 µM) | 68 | MIC [2]: 8 µg/mL (≈ 10.4 µM); MIC [5]: 0.5 µg/mL (≈ 0.652 µM); MIC [9, 23]: 0.25 µg/mL (≈ 0.326 µM); MIC ([11]; X400): 0.5 µg/mL (≈ 0.652 µM); MIC ([13]; 22C): 25 µg/mL (≈ 32.6 µM); MIC (Mycoplasma hyorhinis): > 50 µg/mL; ED50 ([21]; C203, sc, subcutaneous): 10.5 mg/kg; Number with Antibodies/Number Tested (Mycoplasma gallisepticum [22]; [24]): 5/10; Number with Antibodies/Number Tested (Mycoplasma gallisepticum [22]; [25]): 0/10; Mortality (Mycoplasma gallisepticum [22]; [24]): 0/10; Number with Air-Sac Lesions/Number Treated (Mycoplasma gallisepticum [22]; [24]): 3/10; Mortality (Mycoplasma gallisepticum [22]; [25]): 0/10; Number with Air-Sac Lesions/Number Treated (Mycoplasma gallisepticum [22]; [25]): 0/10
2 | CCC1OC(=O)CC(O)C(C)C(OC2OC(C)C(OC3CC(C)(O)C(O)C(C)O3)C(N(C)C)C2O)C(CC=O)CC(C)C(=O)C=CC(C)=CC1CN (centres unmarked) [Compound 2, 23-Deoxy-23-amino-DMT] | 8 (≈ 10.8 µM) | 16 (≈ 21.6 µM) | 4 (≈ 5.4 µM) | 1 (≈ 1.35 µM) | 8 (≈ 10.8 µM) | 2 (≈ 2.7 µM) | 4 (≈ 5.4 µM) | 0.5 (≈ 0.675 µM) | 12.5 (≈ 16.9 µM) | 0.78 (≈ 1.05 µM) | 6.25 (≈ 8.44 µM) | 12.5 (≈ 16.9 µM) | 1.56 (≈ 2.11 µM) | 12.5 (≈ 16.9 µM) | 12.5 (≈ 16.9 µM) | 1.56 (≈ 2.11 µM) | 12.5 (≈ 16.9 µM) | 6.25 (≈ 8.44 µM) | 12.5 (≈ 16.9 µM) | > 100 | MIC [2]: 16 µg/mL (≈ 21.6 µM); MIC [5, 26]: 8 µg/mL (≈ 10.8 µM); MIC [9, 23]: 8 µg/mL (≈ 10.8 µM); MIC [11, 27]: 8 µg/mL (≈ 10.8 µM); MIC [13, 28]: 25 µg/mL (≈ 33.7 µM); MIC (Mycoplasma hyorhinis; [29]): 25 µg/mL (≈ 33.7 µM); ED50 ([21]; C203, sc, subcutaneous): < 1.5 mg/kg
3 | CCC1OC(=O)CC(O)C(C)C(OC2OC(C)C(OC3CC(C)(O)C(O)C(C)O3)C(N(C)C)C2O)C(CC=O)CC(C)C(=O)C=CC(C)=CC1CNC(=O)Cc1ccccc1 (centres unmarked) [Compound 3, 23-Deoxy-23-(phenylacetyl)amino-DMT] | 1 (≈ 1.16 µM) | 8 (≈ 9.31 µM) | 0.5 (≈ 0.582 µM) | 0.25 (≈ 0.291 µM) | 0.5 (≈ 0.582 µM) | 0.5 (≈ 0.582 µM) | 0.5 (≈ 0.582 µM) | 0.25 (≈ 0.291 µM) | 25 (≈ 29.1 µM) | 0.39 (≈ 0.454 µM) | 1.56 (≈ 1.82 µM) | 25 (≈ 29.1 µM) | 0.19 (≈ 0.221 µM) | 50 (≈ 58.2 µM) | 25 (≈ 29.1 µM) | 0.09 (≈ 0.105 µM) | 25 (≈ 29.1 µM) | 12.5 (≈ 14.6 µM) | 25 (≈ 29.1 µM) | > 100 | MIC [2]: 8 µg/mL (≈ 9.31 µM); MIC [5, 26]: 0.5 µg/mL (≈ 0.582 µM); MIC ([9]; V41): 1 µg/mL (≈ 1.16 µM); MIC ([11]; X400): 1 µg/mL (≈ 1.16 µM); MIC [13, 28]: 50 µg/mL (≈ 58.2 µM); MIC (Mycoplasma hyorhinis; [29]): 1.56 µg/mL (≈ 1.82 µM); ED50 ([21]; C203, sc, subcutaneous): 3.8 mg/kg; Number with Antibodies/Number Tested (Mycoplasma gallisepticum [22]; [24]): 8/9; Number with Antibodies/Number Tested (Mycoplasma gallisepticum [22]; [25]): 3/10; Mortality (Mycoplasma gallisepticum [22]; [24]): 1/10; Number with Air-Sac Lesions/Number Treated (Mycoplasma gallisepticum [22]; [24]): 8/10; Mortality (Mycoplasma gallisepticum [22]; [25]): 0/10; Number with Air-Sac Lesions/Number Treated (Mycoplasma gallisepticum [22]; [25]): 0/10
4 | CCC1OC(=O)CC(O)C(C)C(OC2OC(C)C(OC3CC(C)(O)C(O)C(C)O3)C(N(C)C)C2O)C(CC=O)CC(C)C(=O)C=CC(C)=CC1CSc1ccccc1 (centres unmarked) [Compound 4, 23-Deoxy-23-(phenyl)thio-DMT] | 0.5 (≈ 0.599 µM) | 4 (≈ 4.8 µM) | 0.5 (≈ 0.599 µM) | 0.125 (≈ 0.15 µM) | 0.125 (≈ 0.15 µM) | 0.5 (≈ 0.599 µM) | 0.5 (≈ 0.599 µM) | 0.03 (≈ 0.036 µM) | 6.25 (≈ 7.49 µM) | 0.19 (≈ 0.228 µM) | 0.39 (≈ 0.468 µM) | 6.25 (≈ 7.49 µM) | 0.19 (≈ 0.228 µM) | 12.5 (≈ 15 µM) | 12.5 (≈ 15 µM) | ≤ 0.05 | 25 (≈ 30 µM) | 6.25 (≈ 7.49 µM) | 12.5 (≈ 15 µM) | 71 | MIC [5, 26]: 0.25 µg/mL (≈ 0.3 µM); MIC [9, 23]: 0.25 µg/mL (≈ 0.3 µM); MIC [11, 27]: 0.5 µg/mL (≈ 0.599 µM); MIC [13, 28]: 25 µg/mL (≈ 30 µM); MIC (Mycoplasma hyorhinis; [29]): 0.78 µg/mL (≈ 0.935 µM); ED50 ([21]; C203, sc, subcutaneous): < 25 mg/kg; Number with Antibodies/Number Tested (Mycoplasma gallisepticum [22]; [24]): 8/10; Number with Antibodies/Number Tested (Mycoplasma gallisepticum [22]; [25]): 7/10; Mortality (Mycoplasma gallisepticum [22]; [24]): 0/10; Number with Air-Sac Lesions/Number Treated (Mycoplasma gallisepticum [22]; [24]): 7/10; Mortality (Mycoplasma gallisepticum [22]; [25]): 0/10; Number with Air-Sac Lesions/Number Treated (Mycoplasma gallisepticum [22]; [25]): 3/10
